Assay results as given in US20230133672A1, “FUSION POLYPEPTIDE COMPRISING GDF15 AND POLYPEPTIDE REGION CAPABLE OF O-GLYCOSYLATION” (LG CHEM, LTD., priority 2019, published 2023).

How the values were obtained:
[1] = Pharmacokinetic test, subcutaneous administration to SD rats (serum ELISA, Human GDF15 Immunoassay); type: in vivo; conditions: 2 mg/kg subcutaneous
Protocol: For evaluation of pharmacokinetic characteristics when each fusion polypeptide was subcutaneously administered to rats, the fusion polypeptides HT-ID1-GDF15, HT-ID2-GDF15 and HT-ID3-GDF15 were subcutaneously administered into SD rats (Koatech, male, 7-week-old, about 250 g; n=3 each; test group) in an amount of 2 mg/kg, respectively, and about 200 μl of blood was collected through the caudal vein at a predetermined time. The blood collection time was performed before administration, and 1, 2, 4, 8, 24, 48, 72, 96, 168, 240 and 336 hours after administration. As the control group for comparison of pharmacokinetic characteristics, GDF15 (R&D Systems) was subcutaneously administered in an amount of 2 mg/kg by the same method to prepare a GDF15 administration group.
After administering into SD Rats as above, blood collected by time-point was centrifuged to obtain serum, and ELISA was performed using Human GDF15 Immunoassay (SGD150, R&D Systems), and the concentration in the serum was measured depending on the time of each polypeptide.

[2] = Repeated administration: feed intake in DIO mice; type: in vivo, Mouse, C57BL/6J-DIO; set-up: unit not given here
Protocol: (§1) In addition, after administering the test substances into mice, the daily feed intake was measured, and the feeding amount was measured using an electronic scale for each breeding box, and the remaining amount was measured to calculate the daily feed intake. In case of an individual that gnawed heavily on heed, it was excluded from the measurement.
(§2) All the experimental results obtained in the present example were expressed as mean±standard error and tested using Prism5 (version 5.01). One-way analysis of variance (ANOVA) was performed on all data, and when significance was observed, Dunnett's test was performed to find out the test groups with a significant difference from the control group (significance level: two-sided 5% and 1%, 0.1%).
(§3) Except for the administration dose, animal number and administration cycle, most of the test processes were the same as in Example 2.1.1 above.
(§4) The test substances were administered twice a week (Days 0, 4, 7, 11, 14, 18, 21, 25) for a total of 8 times. For comparison, the control group in which the control substance Semaglutide was administered every day was prepared, and the comparison group in which Semaglutide was administered every day was administered once a day daily, and all the administration was progressed from 9 AM.

[3] = Repeated administration: body weight change in DIO mice; type: in vivo, Mouse, C57BL/6J-DIO
Protocol: The body weight of each mouse was measured on the day of the start of administration of the test substances (before administration), and thereafter, the body weight was measured every day ([…]), and the amount of the administration solution of the test substances was determined on the basis of the most recently measured body weight.
as §2, §3, §4

[4] = Single administration: body weight change in DIO mice; type: in vivo, Mouse, C57BL/6J-DIO; conditions: for Body Weight (Group, % of initial): daily s.c. injection, mean
Protocol: (§5) The pharmacological effect of the fusion polypeptides produced and purified in Example 1 above was tested in mice (C57BL/6J, 6-week-old, male, 100 mice; Raonbio).
(§6) In the present example, DI0 mouse model (Mouse, C57BL/6J-DIO, male, 100 mice, 14-week-old (obesity feed feeding for 8 weeks)) in which obesity was induced by feeding a high-fat diet into the C57BL/6J mice for 8 weeks was used.
(§7) The administration of the test substances HT-ID1-GDF15, HT-ID2-GDF15, and HT-ID3-GDF15 and the control substance Semaglutide (Bachem) was conducted from the next day after group separation, and the administration time was performed at 9 AM every day. Subcutaneous administration was conducted for all the control substance and test substances. For the administration route of the control substance and test substances, subcutaneous administration was selected depending on the clinically scheduled administration route.
(§8) For all the control substance and test substances, the amount of the administration solution was set to 5 mL/kg and the administration liquid by individual was calculated on the basis of the recently measured body weight and it was administered by subcutaneous injection once on the start day of the test using a disposable syringe (1 mL). The test substances were administered only once. For comparison, the control group in which the control substance Semaglutide was administered was prepared, and the comparison group in which Semaglutide was administered was administered once a day, and all the administration was progressed from 9 AM.
As for the observation, measurement and test schedule for the test groups, the administration start date was set to Day 0, and 7 days from the administration start date were set to one week of administration.
The body weight of each mouse was measured on the day of the start of administration of the test substances (before administration), and thereafter, the body weight was measured every day (measured up to 9 days), and the amount of the administration solution of the test substances was determined on the basis of the most recently measured body weight.
as §2

[5] = Single administration: feed intake in DIO mice; type: in vivo, Mouse, C57BL/6J-DIO; set-up: unit not given here
Protocol: as §5, §6, §7, §8, §1, §2

Substance: rhGDF15: GDF15 (R&D Systems), not fused, control group for comparison of pharmacokinetic characteristics
- half-life [1]: 19 h
- AUCextp (%) [(AUCinf − AUClast)/AUCinf]*100 ([1]; serum): 0.463%
- AUClast ([1]; serum): 4860 ng·h/mL
- Cmax (maximum concentration in blood) ([1]; serum): 443 ng/mL
- Tmax (reaching time to maximum concentration in blood) ([1]; serum): 1 h
- t1/2 (loss half-life) ([1]; serum): 19.0 h
- AUCinf ([1]; serum, extrapolated to infinity): 4880 ng·h/mL

Substance: Semaglutide [reference compound]
- Feed intake, Mean ([2]; Day 1, 3 nmol/kg once a day): 2.9
- Feed intake, Mean ([2]; Day 2, 3 nmol/kg once a day): 0.7
- Feed intake, Mean ([2]; Day 3, 3 nmol/kg once a day): 1.3
- Feed intake, Mean ([2]; Day 4, 3 nmol/kg once a day): 1.4
- Feed intake, Mean ([2]; Day 5, 3 nmol/kg once a day): 1.7
- Feed intake, Mean ([2]; Day 6, 3 nmol/kg once a day): 1.5
- Feed intake, Mean ([2]; Day 7, 3 nmol/kg once a day): 1.6
- Feed intake, Mean ([2]; Day 8, 3 nmol/kg once a day): 1.9
- Feed intake, Mean ([2]; Day 9, 3 nmol/kg once a day): 2.0
- Feed intake, Mean ([2]; Day 10, 3 nmol/kg once a day): 2.3
- Feed intake, Mean ([2]; Day 11, 3 nmol/kg once a day): 2.2
- Feed intake, Mean ([2]; Day 12, 3 nmol/kg once a day): 3.2
- Feed intake, Mean ([2]; Day 13, 3 nmol/kg once a day): 2.2
- Feed intake, Mean ([2]; Day 14, 3 nmol/kg once a day): 2.5
- Feed intake, Mean ([2]; Day 15, 3 nmol/kg once a day): 2.5
- Feed intake, Mean ([2]; Day 16, 3 nmol/kg once a day): 2.2
- Feed intake, Mean ([2]; Day 17, 3 nmol/kg once a day): 2.4
- Feed intake, Mean ([2]; Day 18, 3 nmol/kg once a day): 2.2
- Feed intake, Mean ([2]; Day 19, 3 nmol/kg once a day): 2.6
- Feed intake, Mean ([2]; Day 20, 3 nmol/kg once a day): 2.6
- Feed intake, Mean ([2]; Day 21, 3 nmol/kg once a day): 2.5
- Feed intake, Mean ([2]; Day 22, 3 nmol/kg once a day): 2.9
- Feed intake, Mean ([2]; Day 23, 3 nmol/kg once a day): 2.0
- Feed intake, Mean ([2]; Day 24, 3 nmol/kg once a day): 2.4
- Feed intake, Mean ([2]; Day 25, 3 nmol/kg once a day): 2.9
- Feed intake, Mean ([2]; Day 26, 3 nmol/kg once a day): 2.4
- Feed intake, Mean ([2]; Day 27, 3 nmol/kg once a day): 2.4
- Feed intake, Mean ([2]; Day 28, 3 nmol/kg once a day): 2.7
- Body Weight, Mean ([3]; Day 0, 3 nmol/kg once a day): 100.0 % of initial
- Body Weight, Mean ([3]; Day 1, 3 nmol/kg once a day): 93.9 % of initial
- Body Weight, Mean ([3]; Day 2, 3 nmol/kg once a day): 92.6 % of initial
- Body Weight, Mean ([3]; Day 3, 3 nmol/kg once a day): 90.4 % of initial
- Body Weight, Mean ([3]; Day 4, 3 nmol/kg once a day): 88.4 % of initial
- Body Weight, Mean ([3]; Day 5, 3 nmol/kg once a day): 66.2 % of initial
- Body Weight, Mean ([3]; Day 6, 3 nmol/kg once a day): 64.1 % of initial
- Body Weight, Mean ([3]; Day 7, 3 nmol/kg once a day): 82.6 % of initial
- Body Weight, Mean ([3]; Day 8, 3 nmol/kg once a day): 61.9 % of initial
- Body Weight, Mean ([3]; Day 9, 3 nmol/kg once a day): 80.7 % of initial
- Body Weight, Mean ([3]; Day 10, 3 nmol/kg once a day): 80.3 % of initial
- Body Weight, Mean ([3]; Day 11, 3 nmol/kg once a day): 80.3 % of initial
- Body Weight, Mean ([3]; Day 12, 3 nmol/kg once a day): 79.1 % of initial
- Body Weight, Mean ([3]; Day 13, 3 nmol/kg once a day): 76.8 % of initial
- Body Weight, Mean ([3]; Day 14, 3 nmol/kg once a day): 76.7 % of initial
- Body Weight, Mean ([3]; Day 15, 3 nmol/kg once a day): 78.1 % of initial
- Body Weight, Mean ([3]; Day 16, 3 nmol/kg once a day): 78.3 % of initial
- Body Weight, Mean ([3]; Day 17, 3 nmol/kg once a day): 77.2 % of initial
- Body Weight, Mean ([3]; Day 18, 3 nmol/kg once a day): 76.7 % of initial
- Body Weight, Mean ([3]; Day 19, 3 nmol/kg once a day): 77.1 % of initial
- Body Weight, Mean ([3]; Day 20, 3 nmol/kg once a day): 76.1 % of initial
- Body Weight, Mean ([3]; Day 21, 3 nmol/kg once a day): 76.8 % of initial
- Body Weight, Mean ([3]; Day 22, 3 nmol/kg once a day): 75.9 % of initial
- Body Weight, Mean ([3]; Day 23, 3 nmol/kg once a day): 75.6 % of initial
- Body Weight, Mean ([3]; Day 24, 3 nmol/kg once a day): 76.0 % of initial
- Body Weight, Mean ([3]; Day 25, 3 nmol/kg once a day): 76.3 % of initial
- Body Weight, Mean ([3]; Day 26, 3 nmol/kg once a day): 76.5 % of initial
- Body Weight, Mean ([3]; Day 27, 3 nmol/kg once a day): 76.2 % of initial
- Body Weight, Mean ([3]; Day 28, 3 nmol/kg once a day): 75.7 % of initial
- body weight loss effect ([4]; 3 nmol/kg daily s.c. administration): body weight loss effect was continuously shown from Day 1 after administration
- Body Weight (Group, % of initial) ([4]; Day 0, 3 nmol/kg): 100 % of initial
- Body Weight (Group, % of initial) ([4]; Day 1, 3 nmol/kg): 94 % of initial
- Body Weight (Group, % of initial) ([4]; Day 2, 3 nmol/kg): 91 % of initial
- Body Weight (Group, % of initial) ([4]; Day 3, 3 nmol/kg): 90 % of initial
- Body Weight (Group, % of initial) ([4]; Day 4, 3 nmol/kg): 87 % of initial
- Body Weight (Group, % of initial) ([4]; Day 5, 3 nmol/kg): 87 % of initial
- Body Weight (Group, % of initial) ([4]; Day 6, 3 nmol/kg): 85 % of initial
- Body Weight (Group, % of initial) ([4]; Day 7, 3 nmol/kg): 86 % of initial
- Body Weight (Group, % of initial) ([4]; Day 8, 3 nmol/kg): 83 % of initial
- Body Weight (Group, % of initial) ([4]; Day 9, 3 nmol/kg): 85 % of initial
- Feed intake, Mean ([5]; Day 0, 3 nmol/kg Daily Inj.): 3.7
- Feed intake, Mean ([5]; Day 1, 3 nmol/kg Daily Inj.): 2.1
- Feed intake, Mean ([5]; Day 2, 3 nmol/kg Daily Inj.): 3.3
- Feed intake, Mean ([5]; Day 3, 3 nmol/kg Daily Inj.): 2.8
- Feed intake, Mean ([5]; Day 4, 3 nmol/kg Daily Inj.): 2.3
- Feed intake, Mean ([5]; Day 5, 3 nmol/kg Daily Inj.): 2.9
- Feed intake, Mean ([5]; Day 6, 3 nmol/kg Daily Inj.): 2.7
- Feed intake, Mean ([5]; Day 7, 3 nmol/kg Daily Inj.): 3.2
- Feed intake, Mean ([5]; Day 8, 3 nmol/kg Daily Inj.): 2.4
- Feed intake, Mean ([5]; Day 9, 3 nmol/kg Daily Inj.): 3.7
